Reference: patent publication US12624019B2, “Indazole derivative, and preparation method therefor and use thereof” (Leadingtac Pharmaceutical (Shaoxing) Co., Ltd., priority 2020, dated 2026)

Key:
[1] = molecular target: T1, IKZF1 (Homo sapiens, UniProt Q13422+Q96SW2); experiment: Degradation of IKZF1 in L363 cells by Western blot; assay type: cell-based; conditions: compound 1000 nM, 16 hours
T1 construct: endogenous in cells; host or cells: L363 cells
Procedure: (§1) The 24-well cell culture plate was inoculated with 0.95 mL L363 cells (Nanjing Co-bioer) per well with a cell density of 6×10^5 cells/well. The cell plate was placed in a 5% carbon dioxide incubator and cultured at 37° C. for 8 hours, then 50 μL of compound solution was added. The final concentration of the compound was 1000 nM. After continuing to culture for 16 hours, the cells were collected into a 1.5 mL centrifuge tube and centrifuged at 3000 rpm and 4° C. for 5 minutes. Cell precipitation was washed twice with 1×DPBS, resuspended cells were lysed with 100 μL lysate (cell lysate was Western and IP cell lysate (Beyotime), supplemented with 1 mM mixture of phenylmethylsulfonyl fluoride and protease inhibitor (Beyotime)), left on ice for 30 minutes, then centrifuged at 14000 g at 4° C. for 10 minutes, and the supernatant was taken to detect IKZF1 and IKZF3 protein level by Western blot.
(§2) The total protein concentration in the supernatant of cell lysis was determined by BCA protein quantitative kit (Tiangen). According to the concentration of total protein detected by BCA, the supernatant was adjusted to […] with PBS and 5×SDS-PAGE protein loading buffer (Beyotime), bathed in water at 100° C. for 10 minutes, then placed in ice bath for 5 minutes, centrifuged at 14000 g and 4° C. for 5 minutes, and then collected as WB loading sample. Prefabricated glue (KeyGEN) was used for protein electrophoresis with a loading amount of 10 μL (total protein 2 μg). After Tris-MOPS-SDS electrophoresis solution (Adamas), 120V constant pressure electrophoresis was performed. After electrophoresis, the protein on the adhesive strip was transferred to PVDF membrane with a constant current of […] for 50 minutes. After the membrane was transferred, the membrane was incubated in 5% bovine serum albumin solution for 2 hours at room temperature. After blocking, PVDF membranes were incubated with IKZF1 primary antibody (CST) and IKZF3 primary antibody (Abcam) overnight at 4°, the membranes were washed with TBST buffer (2.4 g Tris, 8.8 g NaCl, 1.5 mL Tween 20, pH adjusted to 7.4, constant volume to 1 L) for 30 minutes, incubated with secondary antibody (Abcam) for 2 hours at room temperature, finally incubated with Clarity Western ECL Substrate (BIO-RAD) for 5 minutes for luminescence development, chemiluminescence imaging system (Clinx, chemiScope 6200 Touch) was used for development and protein mapping photography. The protein map was analyzed by Clinx chemiluminescence analysis software for grayscale values. Using the formula: grayscale correction value=(target protein grayscale value/corresponding internal reference grayscale value)×10^3, the grayscale correction value of each sample was calculated. The degradation rate was calculated by comparing with the grayscale correction value of the control group.

[2] = molecular target: T2, IKZF3 (Homo sapiens, UniProt Q96SW2+Q9UKT9); experiment: Degradation of IKZF3 in L363 cells by Western blot; assay type: cell-based; conditions: compound 1000 nM, 16 hours
T2 construct: endogenous in cells; host or cells: L363 cells
T2 sequence (Q9UKT9 whole entry): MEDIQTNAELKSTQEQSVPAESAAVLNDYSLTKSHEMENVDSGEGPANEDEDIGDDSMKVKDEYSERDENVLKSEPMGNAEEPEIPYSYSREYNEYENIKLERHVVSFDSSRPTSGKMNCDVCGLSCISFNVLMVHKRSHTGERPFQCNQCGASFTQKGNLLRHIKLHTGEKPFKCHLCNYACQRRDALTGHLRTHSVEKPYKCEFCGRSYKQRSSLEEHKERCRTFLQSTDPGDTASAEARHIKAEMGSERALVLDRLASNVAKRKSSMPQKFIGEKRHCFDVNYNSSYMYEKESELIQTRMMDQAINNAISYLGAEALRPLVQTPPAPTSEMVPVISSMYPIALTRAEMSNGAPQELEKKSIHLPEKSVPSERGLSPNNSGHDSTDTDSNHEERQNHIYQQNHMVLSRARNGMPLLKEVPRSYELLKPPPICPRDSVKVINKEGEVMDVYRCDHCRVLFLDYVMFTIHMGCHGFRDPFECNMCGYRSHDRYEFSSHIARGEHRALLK
T2 sequence (Q96SW2 whole entry): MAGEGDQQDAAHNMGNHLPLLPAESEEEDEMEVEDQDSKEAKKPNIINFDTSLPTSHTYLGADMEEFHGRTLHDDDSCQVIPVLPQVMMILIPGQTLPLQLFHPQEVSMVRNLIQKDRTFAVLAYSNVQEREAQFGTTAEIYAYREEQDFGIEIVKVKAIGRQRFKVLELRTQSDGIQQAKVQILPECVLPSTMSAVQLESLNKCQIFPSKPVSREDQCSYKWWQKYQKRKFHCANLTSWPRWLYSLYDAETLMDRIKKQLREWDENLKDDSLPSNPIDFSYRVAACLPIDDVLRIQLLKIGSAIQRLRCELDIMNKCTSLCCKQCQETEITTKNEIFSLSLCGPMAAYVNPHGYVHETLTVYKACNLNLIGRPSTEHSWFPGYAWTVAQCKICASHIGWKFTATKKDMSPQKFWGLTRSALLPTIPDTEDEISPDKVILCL
T2 sequence (Q16531 whole entry partner): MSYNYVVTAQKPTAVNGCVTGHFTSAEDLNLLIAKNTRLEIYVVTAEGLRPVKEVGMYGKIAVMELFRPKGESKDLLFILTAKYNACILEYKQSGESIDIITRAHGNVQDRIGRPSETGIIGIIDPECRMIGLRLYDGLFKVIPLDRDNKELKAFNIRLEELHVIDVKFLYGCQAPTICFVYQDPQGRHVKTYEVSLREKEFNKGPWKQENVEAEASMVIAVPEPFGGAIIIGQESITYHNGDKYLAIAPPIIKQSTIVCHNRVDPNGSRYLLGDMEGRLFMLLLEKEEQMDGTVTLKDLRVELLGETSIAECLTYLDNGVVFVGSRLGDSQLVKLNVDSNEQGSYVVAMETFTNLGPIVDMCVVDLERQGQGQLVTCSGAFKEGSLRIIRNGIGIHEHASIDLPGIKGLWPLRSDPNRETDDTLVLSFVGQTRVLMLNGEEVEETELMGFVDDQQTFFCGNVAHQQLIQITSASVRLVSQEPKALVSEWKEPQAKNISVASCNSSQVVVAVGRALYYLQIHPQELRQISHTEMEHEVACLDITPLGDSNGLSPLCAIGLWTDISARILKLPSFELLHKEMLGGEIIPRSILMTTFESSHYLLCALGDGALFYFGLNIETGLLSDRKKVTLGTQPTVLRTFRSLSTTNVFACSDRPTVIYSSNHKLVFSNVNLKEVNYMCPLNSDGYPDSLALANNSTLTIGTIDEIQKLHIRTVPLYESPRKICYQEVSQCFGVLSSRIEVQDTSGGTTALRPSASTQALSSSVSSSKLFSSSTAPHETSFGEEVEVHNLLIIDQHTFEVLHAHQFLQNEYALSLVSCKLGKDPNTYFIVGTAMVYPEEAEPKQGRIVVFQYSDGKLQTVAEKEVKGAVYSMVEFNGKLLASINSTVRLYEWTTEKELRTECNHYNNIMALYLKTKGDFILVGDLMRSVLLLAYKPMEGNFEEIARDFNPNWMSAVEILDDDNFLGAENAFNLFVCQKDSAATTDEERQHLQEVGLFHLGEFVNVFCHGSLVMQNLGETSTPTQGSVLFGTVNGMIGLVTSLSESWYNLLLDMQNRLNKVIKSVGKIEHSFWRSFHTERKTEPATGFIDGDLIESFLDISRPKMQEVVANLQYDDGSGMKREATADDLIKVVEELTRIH
Procedure: as §1, §2

[3] = molecular target: T3, IRAK4 kinase (Homo sapiens, UniProt Q9NWZ3); experiment: IRAK4 kinase activity test (KinEASE-STK HTRF kit); assay type: biochemical; conditions: IRAK4 kinase inhibition, 7 μM ATP, 37° C. 120 min
T3 sequence (Q9NWZ3 1-460): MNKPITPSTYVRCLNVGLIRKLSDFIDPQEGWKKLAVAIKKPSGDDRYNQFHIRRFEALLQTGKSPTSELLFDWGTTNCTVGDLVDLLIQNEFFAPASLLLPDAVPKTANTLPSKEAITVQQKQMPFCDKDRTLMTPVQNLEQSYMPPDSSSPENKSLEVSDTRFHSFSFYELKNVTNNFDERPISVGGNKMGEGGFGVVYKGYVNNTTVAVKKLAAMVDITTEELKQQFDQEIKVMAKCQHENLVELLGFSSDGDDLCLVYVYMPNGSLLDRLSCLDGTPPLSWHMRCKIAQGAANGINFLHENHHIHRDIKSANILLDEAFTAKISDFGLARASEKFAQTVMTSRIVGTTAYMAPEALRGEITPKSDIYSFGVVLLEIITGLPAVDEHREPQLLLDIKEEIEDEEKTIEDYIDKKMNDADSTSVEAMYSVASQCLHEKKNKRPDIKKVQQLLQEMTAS
Procedure: KinEASE-STK Si serine/threonine kinase kit (Cisbio) was used to detect the inhibitory effect of the compound on IRAK4 kinase activity. The specific method was: the compound was dissolved in dimethyl sulfoxide, and then it was diluted with the buffer solution of the kit by equal gradient to make the final concentration range of the tested compound in the reaction system 10000 nM-0.038 nM, then 2.5 nM kinase, 1 μM biotinylated polypeptide substrate and 7 μM adenosine triphosphate (ATP) were added in sequence and incubated at 37° C. for 120 min. Subsequently, anti-phosphorylated serine/threonine antibody coupled with europium element compound and modified XL665 streptavidin were added to the reaction system to terminate the reaction. After incubating at room temperature for 1 h, the fluorescence intensity of each well at the emission wavelength of 620 nm and 665 nm and the excitation wavelength of 337 nm was determined in HTRF mode on the microplate reader EnVision (PerkinElmer), the ratio value was calculated using the formula Ratio=(665 nm/620 nm)×10^4. By comparing with the fluorescence intensity ratio of the control group, the inhibition rate of the compound at each concentration was calculated, and then the IC50 value of the compound was obtained by fitting the nonlinear curve with the logarithmic concentration-inhibition rate by GraphPad Prism 7.

[4] = molecular target: T4, IRAK4 kinase protein in THP-1 cells (Homo sapiens, UniProt Q9NWZ3); experiment: Degradation of IRAK4 in THP-1 cells by Western Blot; assay type: cell-based; conditions: 24 hours; for DC50 / Dmax: IRAK4 degradation in THP-1 cells; for DC50: read-out: WB DC50; for Dmax: read-out: WB Dmax; for WB D(%) (300 nM) / WB D(%) (1000 nM): degradation percentage of IRAK4 in THP-1 cells; for WB D(%) (300 nM): compound 300 nM; for WB D(%) (1000 nM): compound 1000 nM
T4 construct: endogenous in cells; host or cells: THP-1 cells
T4 sequence (Q9NWZ3 1-460): T3 sequence (Q9NWZ3 1-460)
Procedure: Each well of the 24-well cell culture plate was inoculated with 0.95 mL THP-1 cells (stem cell bank of Chinese academy of sciences) with a cell density of 5×10^5 cells/well. The cell plate was placed in a 5% carbon dioxide incubator and cultured overnight at 37° C., then 50 μL compound in dimethyl sulfoxide was added. The final concentration of the compound was in the range of 1-3000 nM. After continuous cultivation for 24 hours, the cells were collected into a 1.5 mL centrifuge tube, centrifuged at 1000 rpm and 4° C. for 5 minutes. Cell precipitation was washed twice with 1×DPBS, resuspended cells were lysed with 200 μL lysate (cell lysate was Western and IP cell lysate (Beyotime), supplemented with 1 mM mixture of phenylmethylsulfonyl fluoride and protease inhibitor (Beyotime)), left on ice for 30 minutes, then centrifuged at 14000 g at 4° C. for 10 minutes, and the supernatant was taken to detect IRAK4 protein level by Western blot.
The total protein concentration in the supernatant of cell lysis was determined by BCA protein quantitative kit (Tiangen). According to the concentration of total protein detected by BCA, the supernatant was adjusted to […] with PBS and 5×SDS-PAGE protein loading buffer (Beyotime), bathed in water at 100° C. for 10 minutes, then placed in ice bath for 5 minutes, centrifuged at 14000 g and 4° C. for 5 minutes, and then collected as WB loading sample. Prefabricated glue (KeyGEN) was used for protein electrophoresis with a loading amount of 10 μL (total protein 2 μg). After Tris-MOPS-SDS electrophoresis solution (Adamas), 120V constant pressure electrophoresis was performed. After electrophoresis, the protein on the adhesive strip was transferred to PVDF membrane with a constant current of […] for 50 minutes. After the membrane was transferred, the membrane was added in 1×QuickBlock blocking buffer (Beyotime) and incubated for 30 minutes at room temperature. After blocking, PVDF membranes were incubated with IRAK4 primary antibody (Abcam) overnight at 4°, the membranes were washed with TBST buffer (2.4 g Tris, 8.8 g NaCl, 1.5 mL Tween 20, pH adjusted to 7.4, constant volume to 1 L) for 30 minutes, incubated with secondary antibody (Abcam) for 2 hours at room temperature, finally incubated with Clarity Western ECL Substrate (BIO-RAD) for 5 minutes for luminescence development, chemiluminescence imaging system (Clinx, chemiScope 6200 Touch) was used for development and protein mapping photography. The protein map was analyzed by Clinx chemiluminescence analysis software for grayscale values. Using the formula: grayscale correction value=(target protein grayscale value/corresponding internal reference grayscale value)×[…], the grayscale correction value of each sample was calculated. The degradation rate was calculated by comparing with the grayscale correction value of the control group. Furthermore, DC50 and Dmax values of the compound were obtained by the nonlinear curve fitting with the logarithmic concentration-inhibition rate by GraphPad Prism 7.

[5] = Pharmacokinetic study in mice; assay type: in vivo, SD mice
Procedure: The following experimental scheme was used to study the pharmacokinetic behavior of the compound of the present invention in mice and evaluate its pharmacokinetic characteristics.
Experimental scheme: 3 healthy SD mice, male, weighing […], were given 100 mg/kg compound by gavage with a volume of 10 mL/kg, prepared with […] (w/v). Before the test, they were fasted for 12 hours and freely drank water. Food was uniformly consumed 4 h after administration.
Three healthy SD mice, male, weighing […], were given 1 mg/kg compound intravenously with a volume of 5 mL/kg, prepared with 5% DMSO/15% solutol %80% PBS (w/v). Before the test, they were fasted for 12 hours and freely drank water. Food was uniformly consumed 4 h after administration.
0.1 mL of venous blood was taken through the submaxillary venous plexus of mice at 0.08 h, 0.25 h, 0.5 h, 1 h, 2 h, 4 h, 8 h, 24 h after gavage administration and 0.08 h, 0.25 h, 0.5 h, 1 h, 2 h, 4 h, 8 h, 24 h after intravenous administration, placed in a heparin test tube, centrifuged at 11000 rpm for 5 min, and plasma was separated, the concentration of compounds in plasma was determined by liquid chromatography-tandem mass spectrometry.

[6] = male, SD, mouse, po, gavage administration 100 mg/kg, plasma

T1 sequence (Q13422 whole entry): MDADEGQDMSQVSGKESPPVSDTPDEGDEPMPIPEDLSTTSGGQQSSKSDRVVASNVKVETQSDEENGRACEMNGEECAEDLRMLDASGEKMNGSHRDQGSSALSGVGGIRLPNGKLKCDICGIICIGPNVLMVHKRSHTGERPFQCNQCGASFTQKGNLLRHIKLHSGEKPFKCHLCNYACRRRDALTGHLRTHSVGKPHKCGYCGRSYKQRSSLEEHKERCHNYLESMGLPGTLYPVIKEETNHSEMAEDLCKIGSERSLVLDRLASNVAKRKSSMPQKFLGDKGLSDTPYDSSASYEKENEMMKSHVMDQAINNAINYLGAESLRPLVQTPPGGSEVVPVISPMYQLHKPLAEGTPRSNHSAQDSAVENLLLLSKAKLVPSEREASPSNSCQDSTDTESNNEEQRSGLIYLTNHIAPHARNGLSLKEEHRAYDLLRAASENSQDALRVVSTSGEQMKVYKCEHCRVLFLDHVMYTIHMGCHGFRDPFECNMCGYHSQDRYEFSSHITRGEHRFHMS
T1 sequence (Q96SW2 whole entry): as the sequence (Q96SW2 whole entry) above
T1 sequence (Q16531 whole entry partner): as the sequence (Q16531 whole entry partner) above

For `Nc1cccc2c1C(=O)N(C1CCC(=O)NC1=O)C2=O` (centres unmarked) [Pomalidomide, reference compound], the “IKZF1 degradation rate (%)” value [1] was 99.7 ± 0.2% and the “IKZF3 degradation rate (%)” value [2] was 98.6 ± 0.6%.

With `CC(C)(O)c1cc2nn(C3CCN(CCC4CCN(c5ccc6c(c5)C(=O)N(C5CCC(=O)NC5=O)C6=O)CC4)CC3)cc2cc1NC(=O)c1cccc(C(F)(F)F)n1` (centres unmarked) [Example 5, N-(2-(1-(2-(1-(2-(2,6-dioxopiperidin-3-yl)-1,3-dioxoisoindolin-5-yl)piperidin-4-yl)ethyl)piperidin-4-yl)-6-(2-hydroxyprop-2-yl)-2H-indazol-5-yl)-6-(trifluoromethyl) pyridinecarboxamide] the IC50 [3] was 41.1 nM, the “IKZF1 degradation rate (%)” value [1] was 18.8 ± 2.7% and the “IKZF3 degradation rate (%)” value [2] was 22.4 ± 6.6%. The DC50 [4] was 12.1 nM, the Dmax [4] was 92.4% and the “WB D(%) (300 nM)” value [4] was 91.3%. The “WB D(%) (1000 nM)” value [4] was 89.5%.

In the case of `CN(CC1CCN(c2cccc3c2C(=O)N(C2CCC(=O)NC2=O)C3=O)CC1)C[C@H]1CC[C@H](n2cc3cc(NC(=O)c4cccc(C(F)(F)F)n4)c(C(C)(C)O)cc3n2)CC1` (some centres unmarked) [Control group 3, N-(2-((1r,4r)-4-((((1-(2-(2,6-dioxopiperidin-3-yl)-1,3-dioxoisoindolin-4-yl)piperidin-4-yl)methyl)(methyl)amino)methyl)cyclohexyl)-6-(2-hydroxyprop-2-yl)-2H-indazol-5-yl)-6-(trifluoromethyl) pyridinecarboxamide, reference compound], the “IKZF1 degradation rate (%)” value [1] is reported as 97.2 ± 2.6% and the “IKZF3 degradation rate (%)” value [2] is reported as 92.8 ± 5.0%.

With `CC(C)(O)c1cc2nn(C3CCN(CCN4CCN(c5ccc6c(c5)C(=O)N(C5CCC(=O)NC5=O)C6=O)CC4)CC3)cc2cc1NC(=O)c1cccc(C(F)(F)F)n1` (centres unmarked) [Example 4, N-(2-(1-(2-(4-(2-(2,6-dioxopiperidin-3-yl)-1,3-dioxoisoindolin-5-yl)piperazin-1-yl)ethyl)piperidin-4-yl)-6-(2-hydroxyprop-2-yl)-2H-indazol-5-yl)-6-(trifluoromethyl) pyridinecarboxamide] the IC50 [3] was 17.8 nM, the “IKZF1 degradation rate (%)” value [1] was 4.3 ± 0.8% and the “IKZF3 degradation rate (%)” value [2] was −4.5 ± 2.9%. For the same molecule, the DC50 [4] was 1.7 nM, the Dmax [4] was 99.9% and the “WB D(%) (300 nM)” value [4] was 99.5%. For the same molecule, the “WB D(%) (1000 nM)” value [4] was 99.9%.

For `COc1cc2nn(C3CCN(CC4CCN(CCOc5ccc6c(c5)C(=O)N(C5CCC(=O)NC5=O)C6=O)CC4)CC3)cc2cc1NC(=O)c1cccc(C(F)(F)F)n1` (centres unmarked) [Control group 2, N-(2-(1-((1-(2-((2-(2,6-dioxopiperidin-3-yl)-1,3-dioxoisoindol-5-yl)oxy)ethyl)piperidin-4-yl)methyl)piperidin-4-yl)-6-methoxy-2H-indazol-5-yl)-6-(trifluoromethyl) pyridinecarboxamide, reference compound], the “IKZF1 degradation rate (%)” value [1] was 47.5 ± 9.7%, the CL_pred ([5]; intravenous injection 1 mg/kg) was 5.5 L/h/kg and the Vss_pred ([5]; intravenous injection 1 mg/kg) was 109.4 L/kg. It also gave an AUC(0-t) ([5]; male, SD, mouse, intravenous injection 1 mg/kg, plasma) of 122 ng·h/mL, a bioavailability ([5]; male, SD, mouse, plasma, po, gavage 100 mg/kg vs intravenous 1 mg/kg) of 14% and an AUC(0-t) [5, 6] of 1720 ng·h/mL. For the same molecule, the Cmax [5, 6] was 150 ng/mL, the “IKZF3 degradation rate (%)” value [2] was 71.2 ± 5.7% and the Dmax [4] was 85.1%. The “WB D(%) (300 nM)” value [4] was 79.7% and the “WB D(%) (1000 nM)” value [4] was 85.7%.
